The subject of this test is P388 leukemia ip, CD2F1 mice, survival T/C. The test is described as follows: NCI In Vivo Anticancer Drug Screen. Data for tumor model P388 Leukemia (intraperitoneal) in CD2F1 (CDF1) mice. Conditions: endpoint: median survival time, higher = longer survival. Summed up: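 Mice carrying the transplanted tumor received test compound or vehicle. Survival was recorded in each group, and the value is the treated-group measurement divided by that of the vehicle-treated control group.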

The mark [1] stands for this setting: dose: 12.5 mg/kg/injection, schedule: Q01DX009 (ip), vehicle: other.
Where [2] appears, read: dose: 50.0 mg/kg/injection, schedule: Q01DX005 (ip), vehicle: Klucel (hydroxypropylcellulose) (HPC).
Where [3] appears, read: dose: 100.0 mg/kg/injection, schedule: Q01DX005 (ip), vehicle: Klucel (hydroxypropylcellulose) (HPC).
Setting [4] is: dose: 50.0 mg/kg/injection, schedule: Q01DX001 (ip), vehicle: sodium bicarbonate.
The mark [5] stands for this setting: dose: 100.0 mg/kg/injection, schedule: Q01DX001 (ip), vehicle: sodium bicarbonate.
The mark [6] stands for this setting: dose: 200.0 mg/kg/injection, schedule: Q01DX001 (ip), vehicle: sodium bicarbonate.
The mark [7] stands for this setting: dose: 50.0 mg/kg/injection, schedule: Q01DX009 (ip), vehicle: saline.
[8] abbreviates: dose: 100.0 mg/kg/injection, schedule: Q01DX009 (ip), vehicle: saline.
Where [9] appears, read: dose: 400.0 mg/kg/injection, schedule: Q01DX009 (ip), vehicle: saline.
The mark [10] stands for this setting: dose: 25.0 mg/kg/injection, schedule: Q01DX009 (ip), vehicle: saline with Tween-80.
The mark [11] stands for this setting: dose: 50.0 mg/kg/injection, schedule: Q01DX009 (ip), vehicle: saline with Tween-80.
Setting [12] is: dose: 100.0 mg/kg/injection, schedule: Q01DX009 (ip), vehicle: saline with Tween-80.
The mark [13] stands for this setting: dose: 200.0 mg/kg/injection, schedule: Q01DX009 (ip), vehicle: saline with Tween-80.
The mark [14] stands for this setting: dose: 400.0 mg/kg/injection, schedule: Q01DX009 (ip), vehicle: saline with Tween-80.

“And” between values parts separate entries of the source, which are not always exact repeats. Identical values can stand only once. Toxic doses and inconclusive results are not listed.

For the compound `Cc1ccnc(N)c1N`, the T/C (dose: 3.13 mg/kg/injection, schedule: Q01DX009 (ip), vehicle: other) is 89 % of control; the T/C (dose: 6.25 mg/kg/injection, schedule: Q01DX009 (ip), vehicle: other) was 96 % of control; the T/C under setting [1] was 109 % of control.

For `O=C1/C(=C/c2ccccc2)CSC/C1=C\c1ccccc1`, the T/C under setting [2] is 91 % of control and the T/C under setting [3] was 86 % of control.

For the compound `COc1cccc2c1C(=O)c1c(O)c3c(c(O)c1C2=O)C[C@@](O)(C(=O)CO)C[C@@H]3OC1CC(N)C(OC)C(C)O1` (stereo not given in full), the T/C runs as follows: (dose: 0.39 mg/kg/injection, schedule: Q01DX009 (ip), vehicle: saline) 201 % of control; (dose: 0.65 mg/kg/injection, schedule: Q01DX009 (ip), vehicle: saline) 201 % of control; (dose: 1.08 mg/kg/injection, schedule: Q01DX009 (ip), vehicle: saline) 324 % of control; (dose: 1.08 mg/kg/injection, schedule: Q04DX003 (ip), vehicle: saline) 190 % of control; (dose: 1.8 mg/kg/injection, schedule: Q04DX003 (ip), vehicle: saline) 263 % of control; (dose: 3.0 mg/kg/injection, schedule: Q04DX003 (ip), vehicle: saline) 257 % of control. Also, the T/C runs as follows: (dose: 3.13 mg/kg/injection, schedule: Q04DX003 (ip), vehicle: water) 172 % of control; (dose: 5.0 mg/kg/injection, schedule: Q04DX003 (ip), vehicle: saline) 163 % of control and 172 % of control; (dose: 12.5 mg/kg/injection, schedule: Q04DX003 (ip), vehicle: water) 90 % of control.

For `CCOC(=O)CCCCCCCNC(=O)N1c2c(nc(N)[nH]c2=O)NCC1CNc1ccc(C(=O)NC(CCC(=O)O)C(=O)O)cc1` (stereo not given), the T/C is 100 % of control under setting [4], 101 % of control under setting [5] and 100 % of control under setting [6].

Turning to `CN=C(c1ccc(NC(=O)c2ccc(C(=O)Nc3ccc(C(=NC)N(C)C4CCCCC4)cc3)cc2)cc1)N(C)C1CCCCC1`, the T/C (dose: 0.78 mg/kg/injection, schedule: Q01DX005 (ip), vehicle: Klucel (hydroxypropylcellulose) (HPC)) was 104 % of control; the T/C (dose: 1.56 mg/kg/injection, schedule: Q01DX005 (ip), vehicle: Klucel (hydroxypropylcellulose) (HPC)) is 101 % of control; the T/C (dose: 3.12 mg/kg/injection, schedule: Q01DX005 (ip), vehicle: Klucel (hydroxypropylcellulose) (HPC)) was 104 % of control.

As to `N#CCc1nc2ncc(Br)cc2[nH]1`, the T/C reads like this: (dose: 100.0 mg/kg/injection, schedule: Q01DX001 (ip), vehicle: saline with Tween-80) 100 % of control; (dose: 200.0 mg/kg/injection, schedule: Q01DX001 (ip), vehicle: saline with Tween-80) 104 % of control; (dose: 400.0 mg/kg/injection, schedule: Q01DX001 (ip), vehicle: saline with Tween-80) 100 % of control.

As for `CC(=O)c1ccc(N=C2c3ccccc3CN2c2ccc(C(C)=O)cc2)cc1`, the T/C reads like this: (dose: 50.0 mg/kg/injection, schedule: Q01DX005 (ip), vehicle: saline with Tween-80) 88 % of control; (dose: 100.0 mg/kg/injection, schedule: Q01DX005 (ip), vehicle: saline with Tween-80) 89 % of control.

Consider `O=Cc1ccc(O)c(O)c1`, for which the T/C was 106 % of control and 109 % of control under setting [7]; 110 % of control under setting [8]; 107 % of control under setting [9].

In the case of `O=c1[nH]c(=O)c2nc(-c3ccc(Cl)cc3)cnc2[nH]1`, the T/C (dose: 100.0 mg/kg/injection, schedule: Q04DX003 (ip), vehicle: saline with Tween-80) is 94 % of control; the T/C (dose: 200.0 mg/kg/injection, schedule: Q04DX003 (ip), vehicle: saline with Tween-80) was 102 % of control; the T/C (dose: 400.0 mg/kg/injection, schedule: Q04DX003 (ip), vehicle: saline with Tween-80) is 101 % of control.

`CC(=O)NCCSC(NC(=O)Cc1ccccc1)C(=O)O` (stereo not given): the T/C (dose: 50.0 mg/kg/injection, schedule: Q01DX009 (ip), vehicle: Klucel (hydroxypropylcellulose) (HPC)) is 94 % of control; the T/C (dose: 100.0 mg/kg/injection, schedule: Q01DX009 (ip), vehicle: Klucel (hydroxypropylcellulose) (HPC)) was 97 % of control; the T/C (dose: 200.0 mg/kg/injection, schedule: Q01DX009 (ip), vehicle: Klucel (hydroxypropylcellulose) (HPC)) is 100 % of control.

On to `c1ccc(-n2nc3c(c2-c2ccncc2)CCCc2ccccc2-3)cc1`, for which the T/C runs as follows: under setting [1], 96 % of control; (dose: 25.0 mg/kg/injection, schedule: Q01DX009 (ip), vehicle: other) 98 % of control; (dose: 50.0 mg/kg/injection, schedule: Q01DX009 (ip), vehicle: other) 120 % of control; (dose: 100.0 mg/kg/injection, schedule: Q01DX009 (ip), vehicle: other) 110 % of control; (dose: 200.0 mg/kg/injection, schedule: Q01DX009 (ip), vehicle: other) 96 % of control.

Turning to `O=[N+]([O-])c1ccc(-c2nc(/C=N/N3CCSCC3)cs2)s1`, the T/C under setting [10] was 100 % of control, the T/C under setting [11] is 95 % of control and the T/C under setting [12] is 95 % of control.

Take `CCOC(=O)CCCCCCNC(=S)N1c2c(nc(N)[nH]c2=O)NCC1CNc1ccc(C(=O)NC(CCC(=O)O)C(=O)O)cc1` (stereo not given): the T/C runs as follows: under setting [4], 100 % of control; under setting [5], 100 % of control; under setting [6], 98 % of control.

Turning to `Oc1cccnc1`, the T/C (dose: 25.0 mg/kg/injection, schedule: Q01DX009 (ip), vehicle: saline) is 100 % of control and 103 % of control; the T/C under setting [7] is 99 % of control and 102 % of control; the T/C under setting [8] was 102 % of control and 103 % of control; the T/C (dose: 200.0 mg/kg/injection, schedule: Q01DX009 (ip), vehicle: saline) is 103 % of control and 112 % of control; the T/C under setting [9] was 100 % of control and 108 % of control; the T/C (dose: 600.0 mg/kg/injection, schedule: Q01DX009 (ip), vehicle: saline) was 102 % of control and 111 % of control.

As for `O=C(NC(=NC(=Nc1ccc([N+](=O)[O-])cc1)c1ccccc1)c1ccccc1)c1ccccc1`, the T/C under setting [11] was 93 % of control, the T/C under setting [12] is 99 % of control and the T/C under setting [13] is 90 % of control.

As for `CCN(CC)C(=S)SC(=S)N(CC)CC`, the T/C was 108 % of control under setting [12], 104 % of control under setting [13] and 103 % of control under setting [14].

`CCCCCCCCOC(=O)c1ccc(O)cc1`: the T/C (dose: 12.5 mg/kg/injection, schedule: Q01DX009 (ip), vehicle: saline with Tween-80) is 99 % of control; the T/C under setting [10] is 100 % of control; the T/C under setting [11] was 99 % of control and 96 % of control; the T/C under setting [12] is 92 % of control.

As to `CC1=CCC2C(C)(C)CCCC2(C)C1CCC(C)(O)C(O)CO` (stereo not given), the T/C by setting is: (dose: 25.0 mg/kg/injection, schedule: Q01DX005 (ip), vehicle: Klucel + Tween-80) 98 % of control; (dose: 50.0 mg/kg/injection, schedule: Q01DX005 (ip), vehicle: Klucel + Tween-80) 101 % of control; (dose: 100.0 mg/kg/injection, schedule: Q01DX005 (ip), vehicle: Klucel + Tween-80) 98 % of control; (dose: 200.0 mg/kg/injection, schedule: Q01DX005 (ip), vehicle: Klucel + Tween-80) 100 % of control.

For the compound `Cc1nc2c(c(-c3ccccc3)n1)Cc1c(ccc3ccccc13)O2`, the T/C is 96 % of control under setting [11], 102 % of control under setting [12], 99 % of control under setting [13] and 92 % of control under setting [14].

As to `O=C(C[N+]12CN3CN(CN(C3)C1)C2)c1ccc2c(c1)CCCC2`, the T/C by setting is: under setting [2], 100 % of control; under setting [3], 103 % of control; (dose: 200.0 mg/kg/injection, schedule: Q01DX005 (ip), vehicle: Klucel (hydroxypropylcellulose) (HPC)) 106 % of control.

For the compound `C1=CC2(C=CC13OCCO3)OCCO2`, the T/C is, setting by setting: (dose: 25.0 mg/kg/injection, schedule: Q04DX003 (ip), vehicle: Klucel (hydroxypropylcellulose) (HPC)) 107 % of control; (dose: 50.0 mg/kg/injection, schedule: Q04DX003 (ip), vehicle: Klucel (hydroxypropylcellulose) (HPC)) 99 % of control; (dose: 100.0 mg/kg/injection, schedule: Q04DX003 (ip), vehicle: Klucel (hydroxypropylcellulose) (HPC)) 103 % of control.

Values taken from PubChem BioAssay AID330 (DTP/NCI, 2004).
